Test results published in US20190209465A1, “PROCESS FOR PREPARING PHARMACEUTICAL OPHTHALMIC COMPOSITIONS OF BRINZOLAMIDE” (priority 2016, published 2019).

Key:
[1] = Solubility study of oil/surfactant combination (excess drug, heating, centrifugation, HPLC of supernatant); format: physicochemical; details: for mg API dissolved temperature: on heating; for Assay: supernatant by HPLC
Method: Additional solubility trials were planned in order to see the impact of surfactant/oil combination on solubility of Brinzolamide. 5 g of each of the vehicles of Table 2 was added in 10 ml beakers under stirring, containing excesses of drug. Afterwards, the mixture was heated to improve solubilization. After equilibrium was achieved, the mixture was centrifuged at 4000 rpm for 10 minutes and the supernatant was quantified by high-performance liquid chromatography.

[2] = cited from earlier work
[3] = Solubility study of oil/surfactant combination (excess drug, heating, centrifugation, HPLC of supernatant); format: physicochemical; details: in PEG 200 (5 g), on heating
[4] = Solubility study of ophthalmically acceptable excipients (visual, incremental addition of drug, then heating); format: physicochemical
[5] = in Kolliphor EL + IPM (5 g + 1 g)
[6] = in Kolliphor EL + IPM (5 g + 3 g)
[7] = in Kolliphor EL + IPM (5 g + 5 g)
[8] = in Tween 80 + IPM + Kolliphor EL (5 g + 1 g + 3.1 g)
[9] = in Tween 80 + IPM + Kolliphor EL (5 g + 1 g + 4.6 g)
[10] = in Tween 80 + IPM + Kolliphor EL (5 g + 1 g + 12.5 g)

API dissolved ([1]; in Kolliphor EL (5 g)): 203.0 mg/mL | Total mg dissolved ([1]; in Kolliphor EL (5 g)): 1015.1 mg | mg API dissolved @ RT ([1]; in Kolliphor EL (5 g)): 502.6 mg | mg API dissolved temperature ([1]; in Kolliphor EL (5 g)): 512.5 mg | Assay ([1]; in Kolliphor EL (5 g)): 177.65 mg/mL | API dissolved [1, 5]: 167.1 mg/mL | Total mg dissolved [1, 5]: 1002.3 mg | mg API dissolved @ RT [1, 5]: 802.3 mg | mg API dissolved temperature [1, 5]: 200.0 mg | Assay [1, 5]: 104.70 mg/mL | API dissolved [1, 6]: 126.6 mg/mL | Total mg dissolved [1, 6]: 1012.7 mg | mg API dissolved @ RT [1, 6]: 500.5 mg | mg API dissolved temperature [1, 6]: 512.2 mg | Assay [1, 6]: 76.75 mg/mL | API dissolved [1, 7]: 70.8 mg/mL | Total mg dissolved [1, 7]: 708.0 mg | mg API dissolved @ RT [1, 7]: 401.3 mg | mg API dissolved temperature [1, 7]: 306.7 mg | Assay [1, 7]: 68.97 mg/mL | API dissolved ([1]; in PEG 200 (5 g)): 390.1 mg/mL | Total mg dissolved ([1]; in PEG 200 (5 g)): 1950.5 mg | mg API dissolved @ RT ([1]; in PEG 200 (5 g)): 908.2 mg | Assay ([1]; in PEG 200 (5 g)): 236.63 mg/mL | API dissolved ([1]; in Transcutol (5 g)): 400.0 mg/mL | Total mg dissolved ([1]; in Transcutol (5 g)): 2.000 mg | mg API dissolved @ RT ([1]; in Transcutol (5 g)): 1008.5 mg | mg API dissolved temperature ([1]; in Transcutol (5 g)): 991.5 mg | Assay ([1]; in Transcutol (5 g)): 189.94 mg/mL | API dissolved ([1]; in Tween 80 (5 g)): 204.2 mg/mL | Total mg dissolved ([1]; in Tween 80 (5 g)): 1020.9 mg | mg API dissolved @ RT ([1]; in Tween 80 (5 g)): 501.9 mg | mg API dissolved temperature ([1]; in Tween 80 (5 g)): 519.0 mg | Assay ([1]; in Tween 80 (5 g)): 169.08 mg/mL | API dissolved ([1]; in Tween 80 + IPM (5 g + 1 g)): 133.8 mg/mL | Total mg dissolved ([1]; in Tween 80 + IPM (5 g + 1 g)): 802.8 mg | mg API dissolved @ RT ([1]; in Tween 80 + IPM (5 g + 1 g)): 400.9 mg | mg API dissolved temperature ([1]; in Tween 80 + IPM (5 g + 1 g)): 401.9 mg | Assay ([1]; in Tween 80 + IPM (5 g + 1 g)): 113.05 mg/mL | API dissolved ([1]; in Tween 80 + IPM (5 g + 3 g)): 100.3 mg/mL | Total mg dissolved ([1]; in Tween 80 + IPM (5 g + 3 g)): 802.7 mg | mg API dissolved @ RT ([1]; in Tween 80 + IPM (5 g + 3 g)): 400.3 mg | mg API dissolved temperature ([1]; in Tween 80 + IPM (5 g + 3 g)): 402.4 mg | Assay ([1]; in Tween 80 + IPM (5 g + 3 g)): 84.49 mg/mL | API dissolved ([1]; in Tween 80 + IPM (5 g + 5 g)): 90.9 mg/mL | Total mg dissolved ([1]; in Tween 80 + IPM (5 g + 5 g)): 908.6 mg | mg API dissolved @ RT ([1]; in Tween 80 + IPM (5 g + 5 g)): 400.0 mg | mg API dissolved temperature ([1]; in Tween 80 + IPM (5 g + 5 g)): 508.6 mg | Assay ([1]; in Tween 80 + IPM (5 g + 5 g)): 52.08 mg/mL | API dissolved [1, 8]: 110.9 mg/mL | Total mg dissolved [1, 8]: 1009.1 mg | mg API dissolved @ RT [1, 8]: 501.5 mg | mg API dissolved temperature [1, 8]: 507.6 mg | Assay [1, 8]: 88.93 mg/mL | API dissolved [1, 9]: 110.1 mg/mL | Total mg dissolved [1, 9]: 1002.1 mg | mg API dissolved @ RT [1, 9]: 404.0 mg | mg API dissolved temperature [1, 9]: 602.1 mg | Assay [1, 9]: 102.12 mg/mL | API dissolved [1, 10]: 43.5 mg/mL | Total mg dissolved [1, 10]: 805.6 mg | mg API dissolved @ RT [1, 10]: 403.4 mg | mg API dissolved temperature [1, 10]: 402.2 mg | Assay [1, 10]: 39.65 mg/mL | mg API dissolved temperature [3]: 1042.3 mg | Brinzolamide dissolved in 10 g ([4]; in Anfopon): 60 mg | Brinzolamide dissolved in 10 g ([4]; in Dubcare Olga SF): 60 mg | Brinzolamide dissolved in 10 g ([4]; in Isopropyl Myristate (Kollicream IPM)): 60 mg | Brinzolamide dissolved in 10 g ([4]; in Kolliphor EL): 1015.1 mg | Brinzolamide dissolved in 10 g ([4]; in Kollisolv GTA): 210 mg | Brinzolamide dissolved in 10 g ([4]; in Myritol 318): 60 mg | Brinzolamide dissolved in 10 g ([4]; in PEG200): 2000 mg | Brinzolamide dissolved in 10 g ([4]; in Radia 7104): 60 mg | Brinzolamide dissolved in 10 g ([4]; in Sesame Oil): 60 mg | Brinzolamide dissolved in 10 g ([4]; in Silicone Oil): 60 mg | Brinzolamide dissolved in 10 g ([4]; in Transcutol): 800 mg | Brinzolamide dissolved in 10 g ([4]; in Tween 80): 2000 mg
Structure (SMILES): CCN[C@H]1CN(CCCOC)S(=O)(=O)c2sc(S(N)(=O)=O)cc21 [Brinzolamide, (R)-4-ethylamino-3,4-dihydro-2-(3-methoxy) propyl-2H-thieno[3,2-e]-1,2-thiazine-6-sulfonamide 1, 1 dioxide]
solubility in alcohol and methanol ([2]; alcohol and methanol): slightly soluble | solubility in water versus pH ([2]; water, different pH): pH dependent with minimal solubility at neutral pH and increased solubility at more basic or acidic pH | solubility in water ([2]; water): insoluble
